Activity calls are given as the source filed them. Cut-off read from the data, not from the text of the source, for most assays here: actives have a measured EC50 and inactives only a lower limit.
Tests used:
[1] = biological target: T1, Sentrin-specific protease 8 (Homo sapiens, UniProt Q96LD8); format: functional;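 note: luminescence read-out of SENP8 inhibition, dose-response confirmation following an ultra-high-throughput screen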
T1 sequence (Q96LD8 whole entry): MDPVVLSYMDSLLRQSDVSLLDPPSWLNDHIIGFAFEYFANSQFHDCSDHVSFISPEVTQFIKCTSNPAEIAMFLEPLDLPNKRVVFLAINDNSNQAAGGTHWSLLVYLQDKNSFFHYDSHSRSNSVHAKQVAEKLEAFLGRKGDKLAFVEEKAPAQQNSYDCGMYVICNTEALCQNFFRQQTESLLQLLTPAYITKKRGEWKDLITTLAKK

[2] = biological target: T2, Heat shock factor protein 1 (Mus musculus, UniProt P38532); experiment: decrease of HSF1-responsive luciferase luminescence – cell-based, NIH3T3, dose retest, confirmation (AID 2382); format: functional;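 note: NIH3T3 fibroblasts with HSF1-driven luciferase reporter stressed by proteasome inhibitor MG132; luminescence from HSF1-driven luciferase expression after 8 hours of MG132 stress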
T2 sequence (P38532 whole entry): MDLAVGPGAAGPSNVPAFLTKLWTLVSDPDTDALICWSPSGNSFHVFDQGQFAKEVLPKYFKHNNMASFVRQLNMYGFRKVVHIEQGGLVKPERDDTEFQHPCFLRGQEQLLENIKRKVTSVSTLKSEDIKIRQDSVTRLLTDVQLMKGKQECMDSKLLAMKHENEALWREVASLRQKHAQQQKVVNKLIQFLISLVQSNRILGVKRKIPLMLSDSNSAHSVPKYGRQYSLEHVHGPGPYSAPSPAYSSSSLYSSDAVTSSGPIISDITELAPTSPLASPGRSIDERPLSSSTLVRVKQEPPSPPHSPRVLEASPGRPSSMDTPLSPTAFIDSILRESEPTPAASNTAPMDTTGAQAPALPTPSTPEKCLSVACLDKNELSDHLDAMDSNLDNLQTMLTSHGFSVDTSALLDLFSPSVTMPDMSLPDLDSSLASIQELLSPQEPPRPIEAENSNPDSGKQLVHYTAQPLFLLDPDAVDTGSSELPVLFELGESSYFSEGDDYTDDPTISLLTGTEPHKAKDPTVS

[3] = biological target: T3, Sentrin-specific protease 6 (Homo sapiens, UniProt Q9GZR1); format: functional;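 note: Luminescence-based dose-response confirmatory assay of SENP6 inhibition, following up an ultra-high-throughput screen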
T3 sequence (Q9GZR1 whole entry): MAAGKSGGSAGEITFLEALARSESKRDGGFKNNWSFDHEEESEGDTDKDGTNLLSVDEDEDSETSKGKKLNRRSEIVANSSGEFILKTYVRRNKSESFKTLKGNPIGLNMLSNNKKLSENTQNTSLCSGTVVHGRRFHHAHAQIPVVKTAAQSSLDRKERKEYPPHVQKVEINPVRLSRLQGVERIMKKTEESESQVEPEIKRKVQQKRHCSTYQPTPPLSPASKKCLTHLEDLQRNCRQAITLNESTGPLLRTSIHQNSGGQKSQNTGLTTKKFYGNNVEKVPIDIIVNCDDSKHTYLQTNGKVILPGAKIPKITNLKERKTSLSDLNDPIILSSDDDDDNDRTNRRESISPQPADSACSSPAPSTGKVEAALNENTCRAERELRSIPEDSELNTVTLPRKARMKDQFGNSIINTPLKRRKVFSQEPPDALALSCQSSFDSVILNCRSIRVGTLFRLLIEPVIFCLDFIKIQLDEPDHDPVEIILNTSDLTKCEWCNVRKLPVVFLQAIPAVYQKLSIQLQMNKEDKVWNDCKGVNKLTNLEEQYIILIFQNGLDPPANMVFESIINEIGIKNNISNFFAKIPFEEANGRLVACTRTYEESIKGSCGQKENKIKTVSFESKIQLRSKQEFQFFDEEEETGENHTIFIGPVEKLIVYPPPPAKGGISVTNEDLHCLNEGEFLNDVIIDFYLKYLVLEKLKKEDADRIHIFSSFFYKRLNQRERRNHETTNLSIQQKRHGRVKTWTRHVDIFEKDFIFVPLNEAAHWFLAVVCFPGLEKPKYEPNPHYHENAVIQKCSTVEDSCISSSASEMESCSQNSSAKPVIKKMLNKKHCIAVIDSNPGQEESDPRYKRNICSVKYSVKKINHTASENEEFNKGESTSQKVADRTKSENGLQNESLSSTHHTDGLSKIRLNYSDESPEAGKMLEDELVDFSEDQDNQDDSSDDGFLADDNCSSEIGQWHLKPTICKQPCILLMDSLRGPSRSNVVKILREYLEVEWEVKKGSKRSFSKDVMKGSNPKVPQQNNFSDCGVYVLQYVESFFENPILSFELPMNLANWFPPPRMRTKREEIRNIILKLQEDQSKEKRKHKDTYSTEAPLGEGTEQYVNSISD

[4] = system: Streptococcus sp. 'group A'; experiment: Streptococcus pyogenes SK(-)GAS viability under kanamycin – luminescence, BacTiterGlo, confirmation, counter-screen for streptokinase expression inhibitor project, dose response (AID 1900); format: functional, organism-based
Hexokinase-1 = Hexokinase-1 (Homo sapiens, UniProt P19367); experiment: HK1 enzyme activation by HKDC1 hits – biochemical, selectivity assay for HKDC1 activator project, dose response (AID 504762); format: functional
Hexokinase-1, sequence (P19367 whole entry): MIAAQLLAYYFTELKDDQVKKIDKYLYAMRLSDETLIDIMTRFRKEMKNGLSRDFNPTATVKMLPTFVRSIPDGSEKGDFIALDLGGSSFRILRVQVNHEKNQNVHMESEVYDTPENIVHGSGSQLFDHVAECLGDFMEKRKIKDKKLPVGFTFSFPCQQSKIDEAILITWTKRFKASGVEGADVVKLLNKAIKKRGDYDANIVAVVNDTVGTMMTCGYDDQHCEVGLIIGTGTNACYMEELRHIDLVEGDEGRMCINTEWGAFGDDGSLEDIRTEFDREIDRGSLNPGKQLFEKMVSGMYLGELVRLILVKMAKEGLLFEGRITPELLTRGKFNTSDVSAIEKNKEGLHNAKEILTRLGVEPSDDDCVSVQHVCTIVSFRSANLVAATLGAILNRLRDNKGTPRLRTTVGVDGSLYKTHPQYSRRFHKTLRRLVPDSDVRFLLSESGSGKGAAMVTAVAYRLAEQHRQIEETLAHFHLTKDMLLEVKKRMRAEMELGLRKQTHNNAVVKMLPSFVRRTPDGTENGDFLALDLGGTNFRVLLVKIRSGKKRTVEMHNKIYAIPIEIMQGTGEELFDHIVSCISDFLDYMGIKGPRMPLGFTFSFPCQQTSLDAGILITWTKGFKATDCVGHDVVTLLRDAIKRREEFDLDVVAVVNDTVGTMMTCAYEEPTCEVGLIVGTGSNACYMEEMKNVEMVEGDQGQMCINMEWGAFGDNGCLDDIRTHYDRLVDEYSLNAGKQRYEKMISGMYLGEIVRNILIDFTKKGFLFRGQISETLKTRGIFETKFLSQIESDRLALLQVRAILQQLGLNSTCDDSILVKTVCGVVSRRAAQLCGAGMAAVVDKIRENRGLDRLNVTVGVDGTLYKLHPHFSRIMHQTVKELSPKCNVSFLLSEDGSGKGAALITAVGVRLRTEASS

[5] = NIH3T3 cell viability loss – ATP luminescence, mouse fibroblasts, counter-screen, dose response (AID 2010); format: functional, cell-based;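 note: cells exposed to compound for about 90 hours before reading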
HEK293 = experiment: HEK293T cell viability loss, resazurin readout – resazurin fluorescence, cytotoxicity control for NF-kB activator project, SAR follow-up (AID 493251); format: functional, cell-based; settings: Homo sapiens
[6] = Trypanosoma cruzi growth suppression in host cells – NIH3T3 host cells, beta-gal luminescence, confirmation (AID 2044); format: functional, cell-based;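 note: intracellular parasites grown in NIH/3T3 mouse fibroblasts as host cells; luminescent beta-galactosidase reporter signal from transgenic T. cruzi replicating inside host cells; inhibitors lower the luminescence signal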
[7] = DRD fibroblast viability loss – cell-based, non-viral oncogenic, luminescence, dose response (AID 1934); format: functional; settings: Homo sapiens
[8] = non-specific 3'UTR reporter inhibition in Clone20-Shn3RL – cell-based, Renilla luciferase, cherry-picked, counter-screen for Shn3 inhibitor project, dose response (AID 624133); format: functional
[9] = fluconazole-exposed Candida albicans growth modulators – fluorescence, retest, confirmation (AID 2467); format: functional, cell-based
[10] = HEK-293T viability loss after treatment – luminescence, T-cell screen hits, cytotoxicity control for TCR NF-kB inhibitor project, dose response (AID 489026); format: functional, cell-based;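 note: cells exposed to compound about 14 hours before the viability readout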
INS1 = experiment: INS-1E survival protection against cytokine death – cell-based, luminescence, retest, dose response (AID 449756); format: functional; settings: Rattus norvegicus;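 note: cell death triggered by IL-1 beta plus TNF-alpha plus IFN-gamma mixture; protective hits raise ATP signal compared with cytokine alone wells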
BJ [11] = experiment: BJ-TERT fibroblast viability loss – cell-based, RAS-independent, luminescence, dose response (AID 1933); format: functional; settings: Homo sapiens
BJ [12] = experiment: cells; format: functional, cell-based; settings: Homo sapiens

| Structure (SMILES) | IC50 [1] | EC50 [2] | IC50 [3] | EC50 [4] | EC50 (Hexokinase-1) | EC50 [5] | IC50 (HEK293) | EC50 [6] | EC50 [7] | AC50 [8] | EC50 [9] | IC50 [10] | AC50 (INS1) | EC50 (BJ [11]) | EC50 (BJ [12]) |
| --- | --- | --- | --- | --- | --- | --- | --- | --- | --- | --- | --- | --- | --- | --- | --- |
| CCOc1cccc(/C=N/NC(=S)Nc2ccccc2[N+](=O)[O-])c1O | 12.8 µM (active) | 3.56 µM (active) | 10.3 µM (active) | 0.267 µM (active) |  |  |  |  |  |  |  |  |  |  |  |
| CCCCC(=O)NC(c1ccc(N(CC)CC)cc1)c1ccc2cccnc2c1O (stereo not given) |  |  |  |  | > 80 µM (inactive) | 0.884 µM (active) | 35 µM (inactive) | < 0.1 µM (active) | 5.53 µM (active) | 0.635 µM (active) | 0.405 µM (active) | > 80 µM (inactive) | 0.38 µM (active) | 0.717 µM (active) | 2.41 µM (active) |

— ChEMBL document CHEMBL1201862, “PubChem BioAssay data set” (2004)
